Source: PMC12090182, “Repurposing of the RIPK1-Selective Benzo[1,4]oxazepin-4-one Scaffold for the Development of a Type III LIMK1/2 Inhibitor” (ACS Chemical Biology, 2025)

System: MRC-9 cells
Experiment: Multiplex high-content viability assessment
Type: cell-based
Settings: human fibroblast
Outline: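 HEK293T and U2OS cells (DMEM) and MRC-9 fibroblasts (EMEM) exposed to compounds at 1 and 10 μM. Live-cell confocal imaging of cell shape and fluorescence before and at 12, 24 and 48 h. Normalized to 0.1% DMSO; biological duplicates with SEM.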

[1] = 1 µM, 0 h, biological replicate 1
[2] = 1 µM, 0 h, biological replicate 2
[3] = 1 µM, 12 h, biological replicate 1
[4] = 1 µM, 12 h, biological replicate 2
[5] = 1 µM, 24 h, biological replicate 1
[6] = 1 µM, 24 h, biological replicate 2
[7] = 1 µM, 48 h, biological replicate 1
[8] = 1 µM, 48 h, biological replicate 2
[9] = 10 µM, 0 h, biological replicate 1
[10] = 10 µM, 0 h, biological replicate 2
[11] = 10 µM, 12 h, biological replicate 1
[12] = 10 µM, 12 h, biological replicate 2
[13] = 10 µM, 24 h, biological replicate 1
[14] = 10 µM, 24 h, biological replicate 2
[15] = 10 µM, 48 h, biological replicate 1
[16] = 10 µM, 48 h, biological replicate 2

CC(C)C(=O)Nc1ncc(-c2cc(C(F)F)nn2-c2c(Cl)cccc2Cl)s1 [LIMKi3]
Cell count normalized to cells treated with DMSO control [1]: 1.034 | Cell count per well [1]: 155 | Population Fragmented Nuclei (%) [1]: 25.33% | Population Healthy Nuclei (%) [1]: 53.33% | Population Pyknosed Nuclei (%) [1]: 21.33% | Population apoptotic cell (%) [1]: 34.38% | Population cell that influence microtubule strucutre (%) [1]: 18.75% | Population with increased mitochondrial mass (%) [1]: 7.50% | Population with membrane disruption (%) [1]: 1.25% | Cell count normalized to cells treated with DMSO control [2]: 0.869 | Cell count per well [2]: 155 | Population Fragmented Nuclei (%) [2]: 31.13% | Population Healthy Nuclei (%) [2]: 41.06% | Population Pyknosed Nuclei (%) [2]: 27.81% | Population apoptotic cell (%) [2]: 38.10% | Population cell that influence microtubule strucutre (%) [2]: 48.39% | Population with increased mitochondrial mass (%) [2]: 11.29% | Population with membrane disruption (%) [2]: 8.06% | Cell count normalized to cells treated with DMSO control [3]: 0.9165 | Cell count per well [3]: 138 | Population Fragmented Nuclei (%) [3]: 20.00% | Population Healthy Nuclei (%) [3]: 63.70% | Population Pyknosed Nuclei (%) [3]: 16.30% | Population apoptotic cell (%) [3]: 22.73% | Population cell that influence microtubule strucutre (%) [3]: 25.58% | Population with increased mitochondrial mass (%) [3]: 5.81% | Population with membrane disruption (%) [3]: 1.16% | Cell count normalized to cells treated with DMSO control [4]: 0.8765 | Cell count per well [4]: 146 | Population Fragmented Nuclei (%) [4]: 30.94% | Population Healthy Nuclei (%) [4]: 44.60% | Population Pyknosed Nuclei (%) [4]: 24.46% | Population apoptotic cell (%) [4]: 35.29% | Population cell that influence microtubule strucutre (%) [4]: 75.81% | Population with increased mitochondrial mass (%) [4]: 11.29% | Population with membrane disruption (%) [4]: 20.97% | Cell count normalized to cells treated with DMSO control [5]: 0.9351 | Cell count per well [5]: 141 | Population Fragmented Nuclei (%) [5]: 15.83% | Population Healthy Nuclei (%) [5]: 69.06% | Population Pyknosed Nuclei (%) [5]: 15.11% | Population apoptotic cell (%) [5]: 33.33% | Population cell that influence microtubule strucutre (%) [5]: 33.33% | Population with increased mitochondrial mass (%) [5]: 7.29% | Population with membrane disruption (%) [5]: 0.00% | Cell count normalized to cells treated with DMSO control [6]: 0.8553 | Cell count per well [6]: 141 | Population Fragmented Nuclei (%) [6]: 38.85% | Population Healthy Nuclei (%) [6]: 41.73% | Population Pyknosed Nuclei (%) [6]: 19.42% | Population apoptotic cell (%) [6]: 40.74% | Population cell that influence microtubule strucutre (%) [6]: 62.07% | Population with increased mitochondrial mass (%) [6]: 12.07% | Population with membrane disruption (%) [6]: 20.69% | Cell count normalized to cells treated with DMSO control [7]: 0.9887 | Cell count per well [7]: 150 | Population Fragmented Nuclei (%) [7]: 26.21% | Population Healthy Nuclei (%) [7]: 62.07% | Population Pyknosed Nuclei (%) [7]: 11.72% | Population apoptotic cell (%) [7]: 52.94% | Population cell that influence microtubule strucutre (%) [7]: 31.11% | Population with increased mitochondrial mass (%) [7]: 6.67% | Population with membrane disruption (%) [7]: 0.00% | Cell count normalized to cells treated with DMSO control [8]: 0.8351 | Cell count per well [8]: 136 | Population Fragmented Nuclei (%) [8]: 42.54% | Population Healthy Nuclei (%) [8]: 45.52% | Population Pyknosed Nuclei (%) [8]: 11.94% | Population apoptotic cell (%) [8]: 37.50% | Population cell that influence microtubule strucutre (%) [8]: 77.05% | Population with increased mitochondrial mass (%) [8]: 14.75% | Population with membrane disruption (%) [8]: 9.84% | Cell count normalized to cells treated with DMSO control [9]: 1.054 | Cell count per well [9]: 158 | Population Fragmented Nuclei (%) [9]: 19.48% | Population Healthy Nuclei (%) [9]: 62.99% | Population Pyknosed Nuclei (%) [9]: 17.53% | Population apoptotic cell (%) [9]: 44.44% | Population cell that influence microtubule strucutre (%) [9]: 22.68% | Population with increased mitochondrial mass (%) [9]: 9.28% | Population with membrane disruption (%) [9]: 0.00% | Cell count normalized to cells treated with DMSO control [10]: 1.02 | Cell count per well [10]: 182 | Population Fragmented Nuclei (%) [10]: 18.39% | Population Healthy Nuclei (%) [10]: 59.77% | Population Pyknosed Nuclei (%) [10]: 21.84% | Population apoptotic cell (%) [10]: 50.00% | Population cell that influence microtubule strucutre (%) [10]: 38.46% | Population with increased mitochondrial mass (%) [10]: 6.73% | Population with membrane disruption (%) [10]: 4.81% | Cell count normalized to cells treated with DMSO control [11]: 1.2685 | Cell count per well [11]: 191 | Population Fragmented Nuclei (%) [11]: 21.91% | Population Healthy Nuclei (%) [11]: 61.24% | Population Pyknosed Nuclei (%) [11]: 16.85% | Population apoptotic cell (%) [11]: 40.00% | Population cell that influence microtubule strucutre (%) [11]: 92.66% | Population with increased mitochondrial mass (%) [11]: 15.60% | Population with membrane disruption (%) [11]: 0.92% | Cell count normalized to cells treated with DMSO control [12]: 1.111 | Cell count per well [12]: 185 | Population Fragmented Nuclei (%) [12]: 27.68% | Population Healthy Nuclei (%) [12]: 47.46% | Population Pyknosed Nuclei (%) [12]: 24.86% | Population apoptotic cell (%) [12]: 52.27% | Population cell that influence microtubule strucutre (%) [12]: 92.86% | Population with increased mitochondrial mass (%) [12]: 14.29% | Population with membrane disruption (%) [12]: 21.43% | Cell count normalized to cells treated with DMSO control [13]: 1.273 | Cell count per well [13]: 192 | Population Fragmented Nuclei (%) [13]: 24.02% | Population Healthy Nuclei (%) [13]: 64.25% | Population Pyknosed Nuclei (%) [13]: 11.73% | Population apoptotic cell (%) [13]: 42.86% | Population cell that influence microtubule strucutre (%) [13]: 93.04% | Population with increased mitochondrial mass (%) [13]: 32.17% | Population with membrane disruption (%) [13]: 1.74% | Cell count normalized to cells treated with DMSO control [14]: 1.116 | Cell count per well [14]: 184 | Population Fragmented Nuclei (%) [14]: 31.58% | Population Healthy Nuclei (%) [14]: 47.95% | Population Pyknosed Nuclei (%) [14]: 20.47% | Population apoptotic cell (%) [14]: 48.57% | Population cell that influence microtubule strucutre (%) [14]: 92.68% | Population with increased mitochondrial mass (%) [14]: 21.95% | Population with membrane disruption (%) [14]: 6.10% | Cell count normalized to cells treated with DMSO control [15]: 1.325 | Cell count per well [15]: 201 | Population Fragmented Nuclei (%) [15]: 25.53% | Population Healthy Nuclei (%) [15]: 63.83% | Population Pyknosed Nuclei (%) [15]: 10.64% | Population apoptotic cell (%) [15]: 70.00% | Population cell that influence microtubule strucutre (%) [15]: 98.33% | Population with increased mitochondrial mass (%) [15]: 42.50% | Population with membrane disruption (%) [15]: 0.83% | Cell count normalized to cells treated with DMSO control [16]: 1.216 | Cell count per well [16]: 198 | Population Fragmented Nuclei (%) [16]: 37.50% | Population Healthy Nuclei (%) [16]: 43.23% | Population Pyknosed Nuclei (%) [16]: 19.27% | Population apoptotic cell (%) [16]: 51.35% | Population cell that influence microtubule strucutre (%) [16]: 90.36% | Population with increased mitochondrial mass (%) [16]: 21.69% | Population with membrane disruption (%) [16]: 12.05%
